In EP0415303B1, “Pyrido [2,3-b][1,5]benzoxazepin (and thiazepin)-5(6H)-ones and -thiones and their use in the prevention or treatment of HIV infection” (BOEHRINGER INGELHEIM PHARMACEUTICALS INC., priority 1989, dated 1991):

Legend:
[1] = target: T1, HIV-1 RT (Human immunodeficiency virus type 1 group M subtype B, UniProt P03367); assay: Reverse Transcriptase (RT) Assay: inhibition of RNA-dependent DNA polymerase activity; type: biochemical; parameters: RT Inhibition % @ 10 »g/ml: tested at 10 µg/ml; conditions: for inhibition at 1 µM: compound at 1 »M (footnote *), read-out: RT Inhibition % (* % inh. @ 1 »M); for RT Inhibition % @ 10 »g/ml: poly r(C)/oligo d(G) template, ³H-dGTP, 60 minutes at room temperature
T1 construct: Reverse transcriptase enzyme from the LAV strain of Human Immunodeficiency Virus (HIV-1) (1) was isolated from the bacterial strain JM109; made in house; host or cells: E. coli JM109, clone pBRTprtl+ in vector pIBI21 (lac promoter, IPTG induction)
From the text: Utilizing the Reverse Transcriptase (RT) Assay described below, compounds can be tested for their ability to inhibit the RNA-dependent DNA polymerase activity of HIV-1 RT. Certain specific compounds described in the Examples which appear below, were so tested.
Among the enzymes for which Human Immunodeficiency Virus (HIV-1) encodes is a reverse transcriptase (1), so-named because it transcribes a DNA copy from an RNA template. This activity can be quantitatively measured in a cell-free enzyme assay, which has been previously described (2), and is based upon the observation that reverse transcriptase is able to use a synthetic template [poly r(C) primed with oligo d(G)] to transcribe a radio-labelled, acid-precipitable DNA strand utilizing ³H-dGTP as a substrate.
Reverse transcriptase enzyme from the LAV strain of Human Immunodeficiency Virus (HIV-1) (1) was isolated from the bacterial strain JM109 (3) expressing the DNA clone pBRTprtl+ (2) which is under the control of the lac promotor in the expression vector pIBI21 (4). An overnight culture grown in 2XYT medium (37°C, 225 rpm) (5) supplemented with 100 »g/ml ampicillin for positive selection is inoculated at a 1:40 dilution into M9 medium supplemented with 10»g/ml thiamine, 0.5% casamino acids, and 50 »g/ml ampicillin (5). The culture is incubated (37°C, 225 rpm) until it reaches an OD540 of 0.3-0.4. At that time the repressor inhibitor IPTG (isopropyl β-D-thiogalactopyranoside) is added to 0.5mM, and the mixture is incubated for 2 additional hours. Bacteria are pelleted, resuspended in a 50mM Tris, 0.6mM EDTA, 0.375M NaCl buffer and digested by the addition of lysozyme (1mg/ml) for 30 minutes on ice. The cells are lysed by the addition of 0.2% NP-40 and brought to 1M NaCl.
After removal of the insoluble debris by centrifugation, the protein is precipitated by the addition of 3 volumes of saturated aqueous ammonium sulfate. The enzyme is pelleted, resuspended in RT buffer (50mM Tris pH 7.5, 1mM EDTA, 5mM DTT, 0.1% NP-40, 0.1M NaCl, and 50% glycerol), and stored at -70°C for further use.
The 2X concentrated stock reaction mixture is aliquoted and stored at -20°C. The mixture is stable and thawed for use in each assay. This enzyme assay has been adapted to a 96 well microtiter plate system, and has been previously described (6). Tris buffer (50 mM, pH 7.4), vehicle (solvent diluted to match the compound dilution), or compounds in vehicle are dispensed into 96-well microtiter plates (10»l/well; 3 wells/ compound). The HIV-1 RT enzyme is thawed, diluted in 50mM Tris pH 7.4 so that fifteen »l of diluted enzyme contain 0.001 Unit (one unit is that amount of enzyme to transform 1 micromole of substrate per minute at 25°C), and fifteen »l are dispensed per well. Twenty »l of 0.12-0.5M EDTA are added to the first three wells of the microtiter plate. EDTA chelates the Mg⁺⁺ present and prevents reverse transcription. This group serves as background polymerization which is subtracted from all other groups. Twenty-five ul of the 2X reaction mixture are added to all wells and the assay is allowed to incubate at room temperature for 60 minutes. The assay is terminated by precipitating the DNA in each well with 50»l of 10% trichloracetic acid (TCA) (10% w/v) in sodium pyrophosphate (1% w/v). The microtiter plate is incubated for 15 minutes at 4°C and the precipitate is fixed onto #30 glass fiber paper (Schleicher & Schuell) using a Skatron semi-automatic harvester. The filters are then washed with additional TCA (5%) containing sodium pyrophosphate (1%), rinsed with aqueous ethanol (70%), dried, and transferred to scintillation vials (6). Each vial receives 2 mls of scintillation cocktail and is counted in a Beckman beta counter.
The calculation for percent inhibition is as follows: [formula]

[2] = MTT Assay for Cellular Cytotoxicity; type: cell-based; conditions: human; H9 cells, five days incubation, MTT read at 570nm; read-out: Cytotoxicity Assay (EC₅₀)
Protocol: In order to roughly assess the cytotoxicity of the compounds provided by the invention, several such compounds were tested in the MTT Cellular Cytotoxicity Assay described below. Compounds having a relatively high EC₅₀ are preferred.
The MTT [3-(4,5-dimethylthiazol-2-yl)-2,5 diphenyl tetrazolium bromide) assay is based on cleavage of tetrazolium bromide by metabolically active cells, resulting in a highly quantitative blue color. This assay has been previously described (1) but has been optimized for the purposes of the testing reported herein.
The H9 cell line (2), an established human lymphoma suspension cell line grown in RPMI 1640 supplemented with 10% fetal bovine serum, is used as the target cell line in the assay. Cells (100»l) are plated in microtest plate wells at a concentration of 10⁵ cells per ml in the presence of varying concentrations of inhibitor. The cells are incubated at 37°C in a humidified CO₂ incubator. Five days later, 20»l of MTT (5mg/ml in RPMI 1640, sonicated, 0.2 micron filtered, and stored at 4°C) is added to each well. After 4 hours additional incubation at 37°C, 60»l of Triton-X is added to each well and thoroughly mixed to aid the solubilization of the crystals. Absolute ethanol (5»l) is added to each well and the resulting mixture is incubated for 30 minutes at 60°C and immediately read on a plate reader (Dynatech) at a wavelength of 570nm. […]

Row | inhibition at 1 µM [1] | RT Inhibition % @ 10 »g/ml [1] | Compound | other results
1 | 43% | – | Cc1ccc2c(c1)Oc1ncccc1C(=O)N2C [Example 11, 6,9-Dimethylpyrido[2,3-b][1,5)benzoxazepin-5(6H)-one] | –
2 | – | 89% | C=CCN1C(=O)c2cccnc2Oc2ccccc21 [Example 9, 6-Allylpyrido[2,3-b][1,5]benzoxazepin-5(6H)-one] | –
3 | – | 89% | CCN1C(=O)c2cccnc2Sc2ccccc21 [Example 2, 6-Ethylpyrido[2,3-b][1,5]benzothiazepin-5(6H)-one] | –
4 | – | 77% | CCN1C(=O)c2cccnc2Oc2ccccc21 [Example 8, 6-Ethylpyrido[2,3-b][1,5]benzoxazepin-5(6H)-one] | –
5 | – | 71% | CN1C(=O)c2cccnc2Oc2ccccc21 [Example 7, 6-Methylpyrido[2,3-b][1,5]benzoxazepin-5(6H)-one] | –
6 | – | 28% | CCC(=O)N1C(=O)c2cccnc2Oc2ccccc21 [Example 10, 6-Propionylpyrido[2,3-b][1,5]benzoxazepin-5(6H)-one] | –
7 | – | 80% | CCCN1C(=O)c2cccnc2Oc2ccccc21 [Example 1, 6-(n-Propyl)pyrido[2,3-b][1,5]benzoxazepin-5(6H)-one] | –
8 | 67% | – | CCN1C(=O)c2cccnc2Oc2cc(C)ccc21 [Example 12, 6-Ethyl-9-methylpyrido[2,3-b][1,5]benzoxazepin-5(6H)-one] | –
9 | 33% | – | CCN1C(=O)c2cccnc2Oc2cccc(N)c21 [Example 14, 7-Amino-6-ethylpyrido[2,3-b][1,5]benzoxazepin-5(6H)-one] | –

The next lines start with the compound.

Row | Compound | inhibition at 1 µM [1] | RT Inhibition % @ 10 »g/ml [1] | other results
10 | CCCN1C(=O)c2cc(N)cnc2Oc2cc(C)cc(C)c21 [Example 6, 3-Amino-7,9-dimethyl-6-(n-propyl)pyrido[2,3-b][1,5]benzoxazepin-5(6H)-one] | 82% | – | –
11 | CN1C(=O)c2cccnc2Sc2ccccc21 [Example 15, 6-Methylpyrido[2,3-b][1,5]benzothiazepin-5(6H)-one] | – | 85% | –
12 | Cc1ccc2c(c1)Oc1ncc(N)cc1C(=O)N2C [Example 3, 3-Amino-6,9-dimethylpyrido[2,3-b][1,5]benzoxazepin-5(6H)-one] | 57% | – | CC50 at 120 h [2]: 315 µM
13 | Cc1ccc2c(c1)Oc1ncc(O)cc1C(=O)N2C [Example 13, 3-Hydroxy-6,9-dimethylpyrido[2,3-b][1,5]benzoxazepin-5(6H)-one] | – | – | inhibition at 2.5 µM ([1]; compound at 2.5 »M (footnote †), read-out: RT Inhibition % († % inh. @ 2.5 »M)): 41%
14 | Cc1cc(C)c2c(c1)Oc1ncc(N)cc1C(=O)N2C [Example 4, 3-Amino-6,7,9-trimethylpyrido[2,3-b][1,5]benzoxazepin-5(6H)-one] | 92% | – | –
15 | CCN1C(=O)c2cc(N)cnc2Oc2cc(C)cc(C)c21 [Example 5, 3-Amino-7,9-dimethyl-6-ethylpyrido[2,3-b][1,5]benzoxazepin-5(6H)-one] | 93% | – | –
